Experimental data from patent US7754202B1, “Methods of controlling cell differentiation and growth using a fusion protein and a drug” (Stanford University, priority 1998, dated 2010).
Several values for one entry are separate records, joined by “and”; a condition that tells them apart may be missing. Equal entries are not always repeated.

Experiments:
[1] = test system: primary murine bone marrow cells expressing the F36Vmpl fusion protein; assay: Response of marrow cells expressing F36Vmpl (MFM vector) to AP20187; format: cell-based; conditions: compared with FK1012 (data not shown)
From the text: A MSCVneo-based retroviral vector encoding a fusion protein identical to F1mpl except for the presence of the F36V mutation was built and tested. This vector, MFM (FIG. 4), has been used to derive a genetically stable, high titer ecotropic producer cell line using the methods described in Example 5.

[2] = test system: MH cells expressing chimeric receptors; assay: DNA synthesis (BrdU incorporation) in MH cells expressing FKBP chimeric receptors; format: cell-based, monkey (Macaca fascicularis); conditions: serum-starved MH cells, 3 days after AP20187 addition; compared with nonspecific induction by AP20187 alone
Description: FIG. 5. DNA synthesis in MH cells expressing FKBP chimeric receptors after stimulation with AP20187. 5×10^4 MH cells were plated per well (24 well plate) in the presence of FCS. 24 hours after retrovirus infection, culture medium was replaced by serum-free medium and cells were starved for 6 days. At this time point AP20187 was added to one set of cells and BrdU incorporation was measured three days after induction. BrdU labeled cells were counted in four independent areas for each sample (N=3) and expressed as the percentage of BrdU (+) cells. The (+) and (−) symbols after the chimeric gene designations indicates the presence and absence of AP20187, respectively. […]
To test the proliferation properties of MH cells, cellular DNA replication based on incorporation of BrdU was analyzed. […] After this, BrdU labeled DNA was detected in cell nuclei by immuno-histochemistry with BrdU-specific antibodies.
Retroviruse vectors expressing the chimeric receptors provided in TABLE 9 were prepared as a means for gene transfer into hepatocytes. […] Next, the percentage of MH cells grown in the presence of FCS and HGF that can be transduced by an amphotropic β-Gal virus after an incubation of 5 hours at an MOI of 1 cfu per cell was determined. […] At this time point AP20187 was added to one set of cells and BrdU incorporation was measured three days after induction. […]

[3] = test system: cells; assay: Immunosuppressive activity or other toxicity to cells; format: cell-based; conditions: in experiments to date
[4] = test system: genetically modified progenitor cells in the spleen; assay: In vivo selection with MFM vector: G418 resistant colonies in the spleen; design: species or system B6D2F1 mice; conditions: after 40 days
Description: (§1) Marrow cells from B6D2F1 mice were transduced as follows: fluorouracil, 150 mg/kg, was injected intraperitoneally into female B6D2F1 mice. Forty-eight hours later, marrow cells were harvested and cultured for 48 hours in DMEM containing 16% fetal calf serum, 5% IL-3 conditioned medium, 100 ng/ml recombinant IL-6, and 50 ng/ml recombinant murine stem cell factor in a 37° C., 5% CO2 incubator. After 48 hours of prestimulation, cells were transferred onto irradiated (1500 cGy) producer cells and cocultivated using identical growth conditions except for the addition of polybrene (8 μg per ml). The producer cells generate retroviral particles containing the MFM vector that are able to infect the bone marrow cells. Therefore, the MFM retrovirus is introduced into the bone marrow cells during the period of cocultivation. Marrow cells were harvested after 48 hours of cocultivation and 8×10^6 cells were injected into each of 10 lethally irradiated (1050 cGy) B6D2F1 mice. Immediately following transplantation, five mice received intraperitoneal injections of AP20187 daily at a dose of 2 mg/kg/day for forty consecutive days. Five control mice received daily injections of the drug diluent (see below) without AP20187.
(§2) AP20187 was prepared as follows: Drug was solubilized in ethanol, then PEG 400 was added. Finally, a mixture of water and Tween 80 was added to achieve final concentrations of ethanol of 4%, PEG400 10% and Tween 1.4%.
(§3) After 40 days of drug administration, splenectomies were performed; spleens were weighed and spleen cells were tested in clonogenic assays to determine the frequency of genetically modified progenitor cells.

[5] = In vivo half life
[6] = test system: spleen; assay: In vivo selection with MFM vector: spleen weight; design: species or system B6D2F1 mice; conditions: after 40 days
Description: as §1, §2, §3

[7] = molecular target: endogenous FKBP12 (Homo sapiens, UniProt P62942); assay: Binding to endogenous FKBP12
[8] = test system: genetically modified progenitor cells in the femur; assay: In vivo selection with MFM vector: G418 resistant colonies in the femur (bone marrow aspirates); design: species or system B6D2F1 mice
Description: as §1, §2
The presence of the neo gene in the MFM vector allows the frequency of genetically modified progenitor cells to be determined by performing clonogenic assays either in the presence or absence of G418. After 32 days of drug administration, bone marrow aspirates were performed and the frequency of clonogenic progenitor cells was determined. Results are shown as follows:
Sufficient numbers of bone marrow cells were obtained on the aspirates of one control and one drug treated mouse (numbers 191 and 195, respectively) to permit Southern analysis.

[9] = test system: hematopoietic cell subsets in the spleen; assay: In vivo selection with MFM vector: flow cytometry of hematopoietic cell subsets in the spleen; design: species or system B6D2F1 mice; TER119 (erythroid) cells in the spleen / CD11b (myeloid) cells in the spleen / CD41 (megakaryocytic) cells in the spleen / CD3 (T-lymphoid) cells in the spleen / B220 (B-lymphoid) cells in the spleen: unit not given here
Description: as §1, §2
To characterize the types of cells expanding in response to AP20187, flow cytometry was performed using antibodies directed against myeloid (CD11b), erythroid (TER119), megakaryocytic (CD41), B-lymphoid (B-220) and T-lymphoid (CD3) cells.

[10] = individual mice, 2 mg/kg/day i.p., 2 mg/kg/day
[11] = group mean, spleen, flow cytometry
[12] = individual mice, flow cytometry, after 40 days

endogenous FKBP12, sequence (P62942 whole entry, species assumed): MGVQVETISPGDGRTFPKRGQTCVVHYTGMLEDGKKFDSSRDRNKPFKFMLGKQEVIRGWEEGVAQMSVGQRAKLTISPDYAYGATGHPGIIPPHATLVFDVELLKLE

CC[C@H](C(=O)N1CCCC[C@H]1C(=O)O[C@H](CCc1ccc(OC)c(OC)c1)c1cccc(OCC(=O)NCC(CNC(=O)COc2cccc([C@@H](CCc3ccc(OC)c(OC)c3)OC(=O)[C@@H]3CCCCN3C(=O)[C@@H](CC)c3cc(OC)c(OC)c(OC)c3)c2)CN(C)C)c1)c1cc(OC)c(OC)c(OC)c1 [AP20187]
proliferative and differentiative responses [1]: indistinguishable from those we have observed using FK1012
effect on DNA proliferation (BrdU incorporation) [2]: clear effect on DNA proliferation in MH expressing chimeric receptors
immunosuppressive activity or other toxicity to cells [3]: no immunosuppressive activity or other toxicity to cells
G418 Resistant (spleen colonies), Mean ([4]; group mean (+/−)): 9 (+/−8.7%)
G418 Resistant (spleen colonies) [4, 10]: 4.1% and 5.2% and 6.4% and 24.5% and 4.8%
percentage of genetically modified progenitor cells in the spleen ([4]; versus control group): increased percentage of genetically modified progenitor cells in the spleen that did not achieve statistical significance
in vivo half life [5]: 9 h
Spleen Weight, Mean ([6]; group mean (+/−)): 208.9 (+/−43.5) mg
Spleen Weight [6, 10]: 200 mg and 190 mg and 279 mg and 213 mg and 162 mg
spleen size ([6]; versus control group): significant increase in spleen size
binding to endogenous FKBP12 [7]: does not bind to endogenous FKBP12
mean number of G418 resistant colony forming cells in the femur relative to control group ([8]; after 32 days, did not achieve statistical significance): approximately 2 fold
Percentage of G418 Resistant Colonies (femur), Mean ([8]; group mean (+/−), 2 mg/kg/day i.p., after 32 days): 20.9 (+/−13.3) %
Percentage of G418 Resistant Colonies (femur) ([8]; individual mice, 2 mg/kg/day i.p., after 32 days of drug administration, 2 mg/kg/day): 39.3% and 14.7% and 17.7% and 28.1% and 4.6%
proviral signal by Southern analysis of bone marrow aspirates ([8]; one drug treated mouse (195) versus one control (191)): detectable only in the mouse that had received AP20187
B220, mean (standard deviation) [9, 11]: 29.2 (5.1)
CD3, mean (standard deviation) [9, 11]: 12.2 (8.2)
CD11b, mean (standard deviation) [9, 11]: 10.2 (2.5)
CD41, mean (standard deviation) [9, 11]: 1.4 (1.1)
TER119, mean (standard deviation) [9, 11]: 27.7 (8.1)
B220 (B-lymphoid) cells in the spleen [9, 12]: 31.6 and 24.5 and 23.0 and 33.2 and 33.8
CD3 (T-lymphoid) cells in the spleen [9, 12]: 24.4 and 8.4 and 4.8 and 6.5 and 16.8
CD11b (myeloid) cells in the spleen [9, 12]: 9.5 and 7.8 and 12.8 and 8.2 and 13.0
CD41 (megakaryocytic) cells in the spleen [9, 12]: 0.7 and 0.5 and 1.1 and 3.3 and 1.4
TER119 (erythroid) cells in the spleen [9, 12]: 21.0 and 28.2 and 40.8 and 27.4 and 21.1
change in hematopoietic cell subsets in the spleen ([9]; versus control group): increase in myeloid (CD11b-positive) and erythroid (TER119-positive) cells in the spleen
